What was measured:
wild type BCR-Abl = molecular target: T1, wild type BCR-Abl (Homo sapiens, UniProt P00519); test: Antiproliferative effect on Ba/F3 cells expressing wild type BCR-Abl; type: cell-based
T1 construct: expressed in transfected cells; host or cells: Ba/F3; the other entry of the earlier key: BCR (P11274, Breakpoint cluster region protein)
Method: (§1) 32D-p210 cells are plated into 96 well TC plates at a density of 15,000 cells per well. 50 μL of two fold serial dilutions of the test compound (Cmax is 40 μM) are added to each well (STI571 is included as a positive control). After incubating the cells for 48 hours at 37° C., 5% CO2, 15 μL of MTT (Promega) is added to each well and the cells are incubated for an additional 5 hours. The optical density at 570 nm is quantified spectrophotometrically and IC50 values, the concentration of compound required for 50% inhibition, determined from a dose response curve.
(§2) Compounds of the invention are tested for their antiproliferative effect on Ba/F3 cells expressing either wild type or the mutant forms of BCR-Abl (G250E, E255V, T315I, F317L, M351T) that confers resistance or diminished sensitivity to STI571. The antiproliferative effect of these compounds on the mutant-BCR-Abl expressing cells and on the non transformed cells were tested at 10, 3.3, 1.1 and 0.37 μM as described above (in media lacking IL3). The IC50 values of the compounds lacking toxicity on the untransformed cells were determined from the dose response curves obtained as describe above.

G250E BCR-Abl = molecular target: T2, G250E BCR-Abl (Homo sapiens, UniProt P00519, G250E); test: Antiproliferative effect on Ba/F3 cells expressing G250E BCR-Abl; type: cell-based; details: Ba/F3 cells expressing G250E mutant
T2 construct: expressed in transfected cells; host or cells: Ba/F3; the other entry of the earlier key: BCR (P11274, Breakpoint cluster region protein)
Method: as §1, §2

E255V BCR-Abl = molecular target: T3, E255V BCR-Abl (Homo sapiens, UniProt P00519, E255V); test: Antiproliferative effect on Ba/F3 cells expressing E255V BCR-Abl; type: cell-based; details: Ba/F3 cells expressing E255V mutant
T3 construct: expressed in transfected cells; host or cells: Ba/F3; the other entry of the earlier key: BCR (P11274, Breakpoint cluster region protein)
Method: as §1, §2

T315I BCR-Abl = molecular target: T4, T315I BCR-Abl (Homo sapiens, UniProt P00519, T315I); test: Antiproliferative effect on Ba/F3 cells expressing T315I BCR-Abl; type: cell-based; details: Ba/F3 cells expressing T315I mutant
T4 construct: expressed in transfected cells; host or cells: Ba/F3; the other entry of the earlier key: BCR (P11274, Breakpoint cluster region protein)
T4 sequence (P00519 229-512 T315I limits assumed): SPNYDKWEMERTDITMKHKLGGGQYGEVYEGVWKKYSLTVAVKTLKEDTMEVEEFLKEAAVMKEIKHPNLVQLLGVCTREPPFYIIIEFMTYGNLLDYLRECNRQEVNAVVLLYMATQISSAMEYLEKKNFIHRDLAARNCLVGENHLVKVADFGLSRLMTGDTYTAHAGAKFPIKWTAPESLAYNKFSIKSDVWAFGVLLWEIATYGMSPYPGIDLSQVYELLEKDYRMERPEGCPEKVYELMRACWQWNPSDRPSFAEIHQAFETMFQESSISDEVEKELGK
Method: as §1, §2

F317L BCR-Abl = molecular target: T5, F317L BCR-Abl (Homo sapiens, UniProt P00519, F317L); test: Antiproliferative effect on Ba/F3 cells expressing F317L BCR-Abl; type: cell-based; details: Ba/F3 cells expressing F317L mutant
T5 construct: expressed in transfected cells; host or cells: Ba/F3; the other entry of the earlier key: BCR (P11274, Breakpoint cluster region protein)
Method: as §1, §2

M351T BCR-Abl = molecular target: T6, M351T BCR-Abl (Homo sapiens, UniProt P00519, M351T); test: Antiproliferative effect on Ba/F3 cells expressing M351T BCR-Abl; type: cell-based; details: Ba/F3 cells expressing M351T mutant
T6 construct: expressed in transfected cells; host or cells: Ba/F3; the other entry of the earlier key: BCR (P11274, Breakpoint cluster region protein)
Method: as §1, §2

B-RAF = B-RAF (Homo sapiens, UniProt P15056); test: B-RAF kinase inhibition assay (IκBα substrate); type: biochemical; details: 20 μM ATP
Method: Compounds of the invention are tested for their ability to inhibit the activity of B-RAF. The assay is carried out in 384-well MaxiSorp plates (NUNC) with black walls and clear bottom. The substrate, IκBα is diluted in DPBS (1:750) and 15 μL is added to each well. The plates are incubated at 4° C. overnight and washed 3 times with TBST (25 mM Tris, pH 8.0, 150 mM NaCl and 0.05% Tween-20) using the EMBLA plate washer. Plates are blocked by Superblock (15 μL/well) for 3 hours at room temperature, washed 3 times with TBST and pat-dried. Assay buffer containing 20 μM ATP (10 μL) is added to each well followed by 100 nL or 500 nL of compound. B-RAF is diluted in the assay buffer (1 μL into 25 μl) and 10 μL of diluted B-RAF is added to each well (0.4 μg/well). The plates are incubated at room temperature for 2.5 hours. The kinase reaction is stopped by washing the plates 6 times with TBST. Phosph-IκBα (Ser32/36) antibody is diluted in Superblock (1:10,000) and 15 μL is added to each well. The plates are incubated at 4° C. overnight and washed 6 times with TBST. AP-conjugated goat-anti-mouse IgG is diluted in Superblock (1:1,500) and 15 μL is added to each well. Plates are incubated at room temperature for 1 hour and washed 6 times with TBST. […] Plates are read on Acquest or Analyst GT using a Fluorescence Intensity Nanxin BBT anion (505 dichroic mirror).

Bmx = molecular target: T7, Bmx (Homo sapiens, UniProt P51813); test: Upstate KinaseProfiler radio-enzymatic filter binding assay, Bmx; type: biochemical; details: at a concentration of 10 μM; read-out: percentage inhibition of Bmx
T7 construct: purchased Upstate (KinaseProfiler panel)
T7 sequence (P51813 1-675): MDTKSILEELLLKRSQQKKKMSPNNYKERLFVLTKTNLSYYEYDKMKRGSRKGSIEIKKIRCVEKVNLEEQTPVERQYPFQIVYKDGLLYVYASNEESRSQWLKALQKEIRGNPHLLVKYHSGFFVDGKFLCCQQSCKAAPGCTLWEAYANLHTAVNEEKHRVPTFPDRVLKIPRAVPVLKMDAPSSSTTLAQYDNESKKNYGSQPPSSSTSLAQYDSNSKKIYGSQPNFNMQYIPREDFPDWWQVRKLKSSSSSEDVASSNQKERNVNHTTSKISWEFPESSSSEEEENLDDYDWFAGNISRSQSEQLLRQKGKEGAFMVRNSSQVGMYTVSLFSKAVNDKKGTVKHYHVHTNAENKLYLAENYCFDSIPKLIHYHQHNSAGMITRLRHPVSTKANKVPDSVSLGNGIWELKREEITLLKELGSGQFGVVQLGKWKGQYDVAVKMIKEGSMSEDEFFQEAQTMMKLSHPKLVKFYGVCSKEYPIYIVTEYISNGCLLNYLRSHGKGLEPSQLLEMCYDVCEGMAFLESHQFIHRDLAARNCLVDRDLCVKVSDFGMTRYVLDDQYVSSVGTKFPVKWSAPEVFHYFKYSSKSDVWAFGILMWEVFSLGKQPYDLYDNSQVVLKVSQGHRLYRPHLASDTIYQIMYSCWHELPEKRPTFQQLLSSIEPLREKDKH
Method: (§3) Compounds of the invention are assessed for their ability to inhibit individual members of a panel of kinases (a partial, non-limiting list of kinases includes: BMX, CSK, TrkB, FGFR3, Fes, Lck, B-RAF, C-RAF, MKK6, SAPK2α and SAPK2β). The compounds are tested in duplicates at a final concentration of 10 μM following this generic protocol. Note that the kinase buffer composition and the substrates vary for the different kinases included in the “Upstate KinaseProfiler™” panel. Kinase buffer (2.5 μL, 10×—containing MnCl2 when required), active kinase (0.001-0.01 Units; 2.5 μL), specific or Poly(Glu4-Tyr) peptide (5-500 μM or 0.01 mg/ml) in kinase buffer and kinase buffer (50 μM; 5 μL) are mixed in an eppendorf on ice. […] The assay squares are transferred to a scintillation vial, 5 ml scintillation cocktail are added and ^32P incorporation (cpm) to the peptide substrate is quantified with a Beckman scintillation counter. Percentage inhibition is calculated for each reaction.

c-Raf = molecular target: T8, c-Raf (Homo sapiens, UniProt P04049); test: Upstate KinaseProfiler radio-enzymatic filter binding assay, c-Raf; type: biochemical; details: at a concentration of 10 μM; read-out: percentage inhibition of c-Raf
T8 construct: purchased Upstate (KinaseProfiler panel)
T8 sequence (P04049 whole entry): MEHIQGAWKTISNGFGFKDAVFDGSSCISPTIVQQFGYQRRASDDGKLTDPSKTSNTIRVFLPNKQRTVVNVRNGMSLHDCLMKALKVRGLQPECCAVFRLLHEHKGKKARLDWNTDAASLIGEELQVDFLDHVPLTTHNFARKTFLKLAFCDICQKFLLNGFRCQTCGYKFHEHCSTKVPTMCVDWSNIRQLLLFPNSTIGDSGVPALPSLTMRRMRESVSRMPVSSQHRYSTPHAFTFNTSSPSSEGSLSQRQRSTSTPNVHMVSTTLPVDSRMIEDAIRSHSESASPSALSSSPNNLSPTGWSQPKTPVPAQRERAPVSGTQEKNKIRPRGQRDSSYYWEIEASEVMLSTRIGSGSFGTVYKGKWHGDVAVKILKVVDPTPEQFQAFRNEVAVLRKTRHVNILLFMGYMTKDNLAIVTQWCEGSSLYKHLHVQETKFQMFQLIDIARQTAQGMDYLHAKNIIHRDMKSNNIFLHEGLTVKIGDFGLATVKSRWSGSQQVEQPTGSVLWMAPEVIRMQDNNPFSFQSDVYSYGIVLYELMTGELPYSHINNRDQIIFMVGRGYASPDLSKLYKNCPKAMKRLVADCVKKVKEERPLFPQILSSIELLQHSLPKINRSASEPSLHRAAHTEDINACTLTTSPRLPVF
Method: as §3

CSK = molecular target: T9, CSK (Homo sapiens, UniProt P41240); test: Upstate KinaseProfiler radio-enzymatic filter binding assay, CSK; type: biochemical; details: at a concentration of 10 μM; read-out: percentage inhibition of CSK
T9 construct: purchased Upstate (KinaseProfiler panel)
T9 sequence (P41240 whole entry): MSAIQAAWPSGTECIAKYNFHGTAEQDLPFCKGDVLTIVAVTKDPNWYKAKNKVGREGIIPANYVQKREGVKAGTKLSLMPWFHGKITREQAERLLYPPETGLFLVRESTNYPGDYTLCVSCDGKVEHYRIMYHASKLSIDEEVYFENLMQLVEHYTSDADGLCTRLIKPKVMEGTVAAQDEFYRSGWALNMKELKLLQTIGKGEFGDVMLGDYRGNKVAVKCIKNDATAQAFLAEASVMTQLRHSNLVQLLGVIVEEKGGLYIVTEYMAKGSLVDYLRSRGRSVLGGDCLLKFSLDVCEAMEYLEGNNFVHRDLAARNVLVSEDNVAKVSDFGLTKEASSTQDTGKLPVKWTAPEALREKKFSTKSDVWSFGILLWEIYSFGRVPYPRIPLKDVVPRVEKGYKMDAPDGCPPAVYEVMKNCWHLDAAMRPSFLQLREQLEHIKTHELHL
Method: as §3

Fes = molecular target: T10, Fes (Homo sapiens, UniProt P07332); test: Upstate KinaseProfiler radio-enzymatic filter binding assay, Fes; type: biochemical; details: at a concentration of 10 μM; read-out: percentage inhibition of Fes
T10 construct: purchased Upstate (KinaseProfiler panel)
T10 sequence (P07332 whole entry): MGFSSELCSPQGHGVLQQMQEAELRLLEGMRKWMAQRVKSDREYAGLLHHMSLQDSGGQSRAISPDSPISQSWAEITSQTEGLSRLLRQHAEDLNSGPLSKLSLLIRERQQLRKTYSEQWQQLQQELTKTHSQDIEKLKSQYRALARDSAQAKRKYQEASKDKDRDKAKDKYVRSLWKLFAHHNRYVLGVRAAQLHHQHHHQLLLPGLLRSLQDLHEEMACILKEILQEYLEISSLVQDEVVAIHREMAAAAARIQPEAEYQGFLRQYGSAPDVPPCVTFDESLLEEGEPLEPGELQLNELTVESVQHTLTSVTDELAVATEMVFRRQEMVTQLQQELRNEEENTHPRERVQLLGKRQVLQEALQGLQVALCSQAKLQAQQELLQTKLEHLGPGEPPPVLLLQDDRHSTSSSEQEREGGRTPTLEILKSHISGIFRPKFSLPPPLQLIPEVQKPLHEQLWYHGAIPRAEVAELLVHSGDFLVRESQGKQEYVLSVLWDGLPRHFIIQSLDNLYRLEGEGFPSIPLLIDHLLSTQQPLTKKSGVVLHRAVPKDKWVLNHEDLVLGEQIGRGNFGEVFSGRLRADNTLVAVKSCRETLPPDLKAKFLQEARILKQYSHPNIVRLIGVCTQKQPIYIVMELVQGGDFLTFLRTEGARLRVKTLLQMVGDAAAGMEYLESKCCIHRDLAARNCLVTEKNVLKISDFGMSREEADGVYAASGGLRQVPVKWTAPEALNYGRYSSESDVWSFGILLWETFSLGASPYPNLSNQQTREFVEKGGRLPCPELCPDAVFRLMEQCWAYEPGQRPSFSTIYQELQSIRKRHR
Method: as §3

Lck = molecular target: T11, Lck (Homo sapiens, UniProt P06239); test: Upstate KinaseProfiler radio-enzymatic filter binding assay, Lck; type: biochemical; details: at a concentration of 10 μM; read-out: percentage inhibition of Lck
T11 construct: purchased Upstate (KinaseProfiler panel)
T11 sequence (P06239 whole entry): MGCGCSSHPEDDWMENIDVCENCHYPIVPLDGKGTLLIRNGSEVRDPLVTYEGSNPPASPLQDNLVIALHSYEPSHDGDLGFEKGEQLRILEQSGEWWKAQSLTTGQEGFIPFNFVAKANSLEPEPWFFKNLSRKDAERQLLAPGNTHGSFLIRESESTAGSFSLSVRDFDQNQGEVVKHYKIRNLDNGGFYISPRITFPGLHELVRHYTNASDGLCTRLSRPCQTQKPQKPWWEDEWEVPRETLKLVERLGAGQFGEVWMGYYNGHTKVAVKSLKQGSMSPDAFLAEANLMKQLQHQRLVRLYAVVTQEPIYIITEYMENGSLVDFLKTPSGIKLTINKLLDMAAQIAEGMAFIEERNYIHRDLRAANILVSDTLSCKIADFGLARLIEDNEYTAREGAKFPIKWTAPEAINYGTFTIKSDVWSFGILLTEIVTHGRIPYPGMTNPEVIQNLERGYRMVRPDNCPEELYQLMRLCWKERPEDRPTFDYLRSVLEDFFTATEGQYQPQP
Method: as §3

SAPK2β = molecular target: T12, SAPK2β (Homo sapiens, UniProt Q15759); test: Upstate KinaseProfiler radio-enzymatic filter binding assay, SAPK2β; type: biochemical; details: at a concentration of 10 μM; read-out: percentage inhibition of SAPK2β
T12 construct: purchased Upstate (KinaseProfiler panel)
T12 sequence (Q15759 whole entry): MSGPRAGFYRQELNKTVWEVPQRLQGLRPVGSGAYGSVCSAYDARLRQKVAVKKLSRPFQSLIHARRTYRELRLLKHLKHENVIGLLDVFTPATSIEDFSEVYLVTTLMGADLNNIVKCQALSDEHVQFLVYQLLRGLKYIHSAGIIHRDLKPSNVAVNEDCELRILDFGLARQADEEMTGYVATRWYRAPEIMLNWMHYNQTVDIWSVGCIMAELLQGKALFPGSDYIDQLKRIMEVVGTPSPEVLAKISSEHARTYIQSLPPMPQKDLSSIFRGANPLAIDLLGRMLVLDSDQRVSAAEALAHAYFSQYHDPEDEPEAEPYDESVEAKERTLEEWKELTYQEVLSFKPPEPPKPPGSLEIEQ
Method: as §3

TrkB = molecular target: T13, TrkB (Homo sapiens, UniProt Q16620); test: Upstate KinaseProfiler radio-enzymatic filter binding assay, TrkB; type: biochemical; details: at a concentration of 10 μM; read-out: percentage inhibition of TrkB
T13 construct: purchased Upstate (KinaseProfiler panel)
T13 sequence (Q16620 32-822): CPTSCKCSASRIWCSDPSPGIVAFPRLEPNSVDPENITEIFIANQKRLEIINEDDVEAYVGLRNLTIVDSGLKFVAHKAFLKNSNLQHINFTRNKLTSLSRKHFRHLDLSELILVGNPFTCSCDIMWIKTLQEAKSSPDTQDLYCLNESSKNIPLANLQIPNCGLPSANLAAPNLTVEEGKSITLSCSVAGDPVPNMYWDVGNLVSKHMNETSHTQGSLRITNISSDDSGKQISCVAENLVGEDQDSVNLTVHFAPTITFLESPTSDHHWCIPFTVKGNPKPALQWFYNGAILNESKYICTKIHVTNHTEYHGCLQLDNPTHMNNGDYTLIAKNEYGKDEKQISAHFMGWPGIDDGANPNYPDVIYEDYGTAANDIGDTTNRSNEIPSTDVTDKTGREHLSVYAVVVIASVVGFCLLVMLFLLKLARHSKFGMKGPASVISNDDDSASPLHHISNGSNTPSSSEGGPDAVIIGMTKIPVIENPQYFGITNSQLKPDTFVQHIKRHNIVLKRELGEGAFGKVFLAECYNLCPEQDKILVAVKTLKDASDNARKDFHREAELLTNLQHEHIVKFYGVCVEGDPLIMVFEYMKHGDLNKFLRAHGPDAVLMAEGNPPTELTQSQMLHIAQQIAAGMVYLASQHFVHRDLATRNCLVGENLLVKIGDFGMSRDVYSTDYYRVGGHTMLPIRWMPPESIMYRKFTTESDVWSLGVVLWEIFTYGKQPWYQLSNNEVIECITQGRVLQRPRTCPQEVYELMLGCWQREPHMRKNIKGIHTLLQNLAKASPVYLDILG
Method: as §3

FGFR3 = molecular target: T14, FGFR3 (Homo sapiens, UniProt P22607); test: Upstate KinaseProfiler radio-enzymatic filter binding assay, FGFR3; type: biochemical; details: at a concentration of 10 μM; read-out: percentage inhibition of FGFR3
T14 construct: purchased Upstate (KinaseProfiler panel)
T14 sequence (P22607 23-806): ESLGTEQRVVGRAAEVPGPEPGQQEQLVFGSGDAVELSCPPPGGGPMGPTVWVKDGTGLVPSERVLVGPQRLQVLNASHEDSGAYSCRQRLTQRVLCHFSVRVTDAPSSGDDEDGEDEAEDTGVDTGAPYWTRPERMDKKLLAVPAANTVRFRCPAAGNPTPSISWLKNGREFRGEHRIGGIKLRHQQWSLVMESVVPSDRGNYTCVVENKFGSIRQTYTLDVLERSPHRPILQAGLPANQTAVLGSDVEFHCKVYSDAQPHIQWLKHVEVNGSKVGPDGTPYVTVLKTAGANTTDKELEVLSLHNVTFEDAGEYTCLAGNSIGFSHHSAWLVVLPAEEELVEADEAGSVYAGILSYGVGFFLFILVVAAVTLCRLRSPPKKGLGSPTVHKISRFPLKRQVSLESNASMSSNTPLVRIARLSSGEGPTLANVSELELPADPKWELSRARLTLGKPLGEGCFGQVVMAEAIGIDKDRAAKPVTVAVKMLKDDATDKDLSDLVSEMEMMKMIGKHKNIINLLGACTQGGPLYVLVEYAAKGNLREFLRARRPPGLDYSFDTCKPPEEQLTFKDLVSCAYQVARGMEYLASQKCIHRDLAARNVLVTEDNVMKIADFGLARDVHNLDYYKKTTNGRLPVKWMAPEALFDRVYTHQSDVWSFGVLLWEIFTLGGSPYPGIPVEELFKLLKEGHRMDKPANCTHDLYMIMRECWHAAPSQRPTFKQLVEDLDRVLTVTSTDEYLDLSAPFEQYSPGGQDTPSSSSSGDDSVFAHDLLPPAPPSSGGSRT
Method: as §3

MKK6 = molecular target: T15, MKK6 (Homo sapiens, UniProt P52564); test: Upstate KinaseProfiler radio-enzymatic filter binding assay, MKK6; type: biochemical; details: at a concentration of 10 μM; read-out: percentage inhibition of MKK6
T15 construct: purchased Upstate (KinaseProfiler panel)
T15 sequence (P52564 1-334): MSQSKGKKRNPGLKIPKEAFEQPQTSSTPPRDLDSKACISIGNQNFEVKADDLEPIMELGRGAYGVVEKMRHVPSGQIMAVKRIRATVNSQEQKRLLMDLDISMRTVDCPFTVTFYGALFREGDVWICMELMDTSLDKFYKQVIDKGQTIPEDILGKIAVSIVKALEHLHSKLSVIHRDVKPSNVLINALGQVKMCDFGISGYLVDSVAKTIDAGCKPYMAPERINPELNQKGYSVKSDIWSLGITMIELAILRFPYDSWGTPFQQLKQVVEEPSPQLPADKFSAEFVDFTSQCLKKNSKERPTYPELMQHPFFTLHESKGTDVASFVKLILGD
Method: as §3

SAPK2α = molecular target: T16, SAPK2α (Homo sapiens, UniProt Q16539); test: Upstate KinaseProfiler radio-enzymatic filter binding assay, SAPK2α; type: biochemical; details: at a concentration of 10 μM; read-out: percentage inhibition of SAPK2α
T16 construct: purchased Upstate (KinaseProfiler panel)
T16 sequence (Q16539 whole entry): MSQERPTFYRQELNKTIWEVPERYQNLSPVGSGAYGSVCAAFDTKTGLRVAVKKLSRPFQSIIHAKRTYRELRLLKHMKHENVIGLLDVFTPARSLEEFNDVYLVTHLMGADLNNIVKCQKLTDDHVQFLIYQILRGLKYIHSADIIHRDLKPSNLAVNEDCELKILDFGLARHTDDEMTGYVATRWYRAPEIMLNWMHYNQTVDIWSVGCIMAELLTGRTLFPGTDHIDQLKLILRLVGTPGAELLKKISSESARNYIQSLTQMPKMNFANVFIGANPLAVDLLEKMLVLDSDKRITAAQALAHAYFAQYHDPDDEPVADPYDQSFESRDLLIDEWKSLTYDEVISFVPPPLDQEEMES
Method: as §3

SMILES	IC50 (wild type BCR-Abl) [nM]	IC50 (G250E BCR-Abl) [nM]	IC50 (E255V BCR-Abl) [nM]	IC50 (T315I BCR-Abl) [nM]	IC50 (F317L BCR-Abl) [nM]	IC50 (M351T BCR-Abl) [nM]	IC50 (B-RAF) [nM]	inhibition at 10 µM (Bmx) [%]	inhibition at 10 µM (c-Raf) [%]	inhibition at 10 µM (CSK) [%]	inhibition at 10 µM (Fes) [%]	inhibition at 10 µM (Lck) [%]	inhibition at 10 µM (SAPK2β) [%]	inhibition at 10 µM (TrkB) [%]	inhibition at 10 µM (FGFR3) [%]	inhibition at 10 µM (MKK6) [%]	inhibition at 10 µM (SAPK2α) [%]
Cc1cn(-c2cc(C(=O)Nc3ccc(C)c(NC(=O)n4ccc5c(Nc6cccc(N(C)C)c6)ncnc54)c3)cc(C(F)(F)F)c2)cn1 [Example 3, 4-(3-Dimethylamino-phenylamino)-pyrrolo[2,3-d]pyrimidine-7-carboxylic acid {2-methyl-5-[3-(4-methyl-imidazol-1-yl)-5-trifluoromethyl-benzoylamino]-phenyl}-amide]	22	170	220	370	50	29	32	100	83	90	82	95	95	100	–	–	–
Cc1cn(-c2cc(C(=O)Nc3ccc(C)c(NC(=O)n4ccc5c(Nc6cccc(C(N)=O)c6)ncnc54)c3)cc(C(F)(F)F)c2)cn1 [Example 7, 4-(3-Carbamoyl-phenylamino)-pyrrolo[2,3-d]pyrimidine-7-carboxylic acid {2-methyl-5-[3-(4-methyl-imidazol-1-yl)-5-trifluoromethyl-benzoylamino]-phenyl}-amide]	5	47	31	115	9	5	–	100	99	100	98	96	100	98	95	98	100

— patent US7338957B2, “Compounds and compositions as protein kinase inhibitors” (IRM LLC, priority 2003, dated 2008)
